According to ChEMBL document CHEMBL1157213, “2-Amino-5-thiazolyl motif: a novel scaffold for designing anti-inflammatory agents of diverse structures” (Eur J Med Chem, 2008):

Columns and labels:
Rattus norvegicus [1] = experiment: Toxic gastric-ulcerogenic effect in Sprague-Dawley rat assessed as lesion score at 100 mg/kg, po after 7 days; format: toxicity, organism-based; design: dose 100 mg/kg, route oral; conditions: in vivo, 168 h
Rattus norvegicus [2] = experiment: Antiinflammatory activity against carrageenan-induced acute paw edema Sprague-Dawley rat inflammatory model assessed as reduction of paw volume at 100 mg/kg, po after 3 hrs relative to control; format: functional; design: scale not given: the % may be the effect or the level left
Rattus norvegicus [3] = experiment: Antiinflammatory activity against formalin-induced chronic paw edema rat inflammatory model assessed as reduction of paw volume at 100 mg/kg, po after 4 days relative to control; format: functional; design: scale not given: the % may be the effect or the level left
Rattus norvegicus [4] = experiment: Antiinflammatory activity against formalin-induced chronic paw edema rat inflammatory model assessed as reduction of paw volume at 100 mg/kg, po after 2 days relative to control; format: functional; design: scale not given: the % may be the effect or the level left
[5] = biological target: T1, Prostaglandin G/H synthase 2 (Homo sapiens) (UniProt P35354); experiment: Inhibition of COX2 at 10 uM
T1 sequence (whole entry): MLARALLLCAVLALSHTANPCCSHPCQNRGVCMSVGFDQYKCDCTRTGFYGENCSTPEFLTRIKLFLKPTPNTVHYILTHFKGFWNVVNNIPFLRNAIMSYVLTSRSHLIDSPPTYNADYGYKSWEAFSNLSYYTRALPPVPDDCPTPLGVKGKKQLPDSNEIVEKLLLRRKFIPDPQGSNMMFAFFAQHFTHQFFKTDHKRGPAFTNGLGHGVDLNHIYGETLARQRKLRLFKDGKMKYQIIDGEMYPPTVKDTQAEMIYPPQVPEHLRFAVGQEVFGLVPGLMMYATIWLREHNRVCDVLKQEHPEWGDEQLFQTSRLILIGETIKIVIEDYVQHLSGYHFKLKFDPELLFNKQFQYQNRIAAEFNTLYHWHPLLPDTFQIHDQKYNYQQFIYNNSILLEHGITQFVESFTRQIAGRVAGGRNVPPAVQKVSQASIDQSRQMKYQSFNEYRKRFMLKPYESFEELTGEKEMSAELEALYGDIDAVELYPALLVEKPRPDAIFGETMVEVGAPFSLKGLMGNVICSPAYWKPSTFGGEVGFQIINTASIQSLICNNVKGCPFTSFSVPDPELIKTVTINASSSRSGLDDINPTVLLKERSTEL

Rattus norvegicus [6] = experiment: Antiinflammatory activity against formalin-induced chronic paw edema rat inflammatory model assessed as reduction of paw volume at 100 mg/kg, po after 5 days relative to control; format: functional; design: scale not given: the % may be the effect or the level left
Rattus norvegicus [7] = experiment: Antiinflammatory activity against formalin-induced chronic paw edema rat inflammatory model assessed as reduction of paw volume at 100 mg/kg, po after 1 day relative to control; format: functional; design: scale not given: the % may be the effect or the level left
[8] = biological target: Prostaglandin G/H synthase 1 (Homo sapiens) (UniProt P23219); experiment: Inhibition of COX1 at 10 uM
Rattus norvegicus [9] = experiment: Antiinflammatory activity against formalin-induced chronic paw edema rat inflammatory model assessed as reduction of paw volume at 100 mg/kg, po after 3 days relative to control; format: functional; design: scale not given: the % may be the effect or the level left
Rattus norvegicus [10] = experiment: Antiinflammatory activity against formalin-induced chronic paw edema rat inflammatory model assessed as reduction of paw volume at 50 mg/kg, po after 5 days relative to control; format: functional; design: scale not given: the % may be the effect or the level left
Rattus norvegicus [11] = experiment: Antiinflammatory activity against formalin-induced chronic paw edema rat inflammatory model assessed as reduction of paw volume at 50 mg/kg, po after 3 days relative to control; format: functional; design: scale not given: the % may be the effect or the level left
Rattus norvegicus [12] = experiment: Antiinflammatory activity against formalin-induced chronic paw edema rat inflammatory model assessed as reduction of paw volume at 50 mg/kg, po after 2 days relative to control; format: functional; design: scale not given: the % may be the effect or the level left
Rattus norvegicus [13] = experiment: Antiinflammatory activity against formalin-induced chronic paw edema rat inflammatory model assessed as reduction of paw volume at 50 mg/kg, po after 1 day relative to control; format: functional; design: scale not given: the % may be the effect or the level left
Rattus norvegicus [14] = experiment: Antiinflammatory activity against carrageenan-induced acute paw edema Sprague-Dawley rat inflammatory model assessed as reduction of paw volume at 50 mg/kg, po after 3 hrs relative to control; format: functional; design: scale not given: the % may be the effect or the level left
Rattus norvegicus [15] = experiment: Antiinflammatory activity against formalin-induced chronic paw edema rat inflammatory model assessed as reduction of paw volume at 50 mg/kg, po after 4 days relative to control; format: functional; design: scale not given: the % may be the effect or the level left
Rattus norvegicus [16] = experiment: Antiinflammatory activity against carrageenan-induced acute paw edema Sprague-Dawley rat inflammatory model assessed as reduction of paw volume at 5 mg/kg, po after 3 hrs relative to control; format: functional; design: scale not given: the % may be the effect or the level left
Rattus norvegicus [17] = experiment: Antiinflammatory activity against formalin-induced chronic paw edema rat inflammatory model assessed as reduction of paw volume at 5 mg/kg, po after 3 days relative to control; format: functional; design: scale not given: the % may be the effect or the level left
Rattus norvegicus [18] = experiment: Antiinflammatory activity against formalin-induced chronic paw edema rat inflammatory model assessed as reduction of paw volume at 5 mg/kg, po after 5 days relative to control; format: functional; design: scale not given: the % may be the effect or the level left
Rattus norvegicus [19] = experiment: Antiinflammatory activity against formalin-induced chronic paw edema rat inflammatory model assessed as reduction of paw volume at 5 mg/kg, po after 2 days relative to control; format: functional; design: scale not given: the % may be the effect or the level left
Rattus norvegicus [20] = experiment: Antiinflammatory activity against formalin-induced chronic paw edema rat inflammatory model assessed as reduction of paw volume at 5 mg/kg, po after 4 days relative to control; format: functional; design: scale not given: the % may be the effect or the level left
Rattus norvegicus [21] = experiment: Antiinflammatory activity against formalin-induced chronic paw edema rat inflammatory model assessed as reduction of paw volume at 5 mg/kg, po after 1 day relative to control; format: functional; design: scale not given: the % may be the effect or the level left

Prostaglandin G/H synthase 1 (Homo sapiens), sequence (P23219 whole entry): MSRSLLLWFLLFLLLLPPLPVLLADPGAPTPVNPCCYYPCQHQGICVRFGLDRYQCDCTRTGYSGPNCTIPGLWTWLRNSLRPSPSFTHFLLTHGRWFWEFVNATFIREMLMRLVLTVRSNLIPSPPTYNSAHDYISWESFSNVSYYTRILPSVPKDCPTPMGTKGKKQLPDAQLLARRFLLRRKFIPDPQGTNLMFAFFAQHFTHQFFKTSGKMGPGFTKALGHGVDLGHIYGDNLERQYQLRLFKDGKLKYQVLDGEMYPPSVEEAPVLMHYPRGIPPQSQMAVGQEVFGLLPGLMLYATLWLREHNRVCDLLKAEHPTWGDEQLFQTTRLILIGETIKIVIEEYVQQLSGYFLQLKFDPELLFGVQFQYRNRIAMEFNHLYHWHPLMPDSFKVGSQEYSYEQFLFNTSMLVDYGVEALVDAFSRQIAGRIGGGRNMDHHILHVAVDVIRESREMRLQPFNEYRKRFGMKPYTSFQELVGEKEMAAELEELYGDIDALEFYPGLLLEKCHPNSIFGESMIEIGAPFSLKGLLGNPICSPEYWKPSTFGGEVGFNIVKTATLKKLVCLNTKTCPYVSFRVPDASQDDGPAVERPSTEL

SMILES	Activity (Rattus norvegicus [1])	Activity (Rattus norvegicus [2])	Activity (Rattus norvegicus [3])	Activity (Rattus norvegicus [4])	inhibition [5]	Activity (Rattus norvegicus [6])	Activity (Rattus norvegicus [7])	inhibition [8]	Activity (Rattus norvegicus [9])	other results
CC(C)Cc1ccc(C(C)C(=O)O)cc1 (stereo not given) [IBUPROFEN]	12 mm									
COC(=O)Nc1nc(N(C)C)c(C(=O)c2ccc(S(C)(=O)=O)cc2)s1		30%	43%	40%	15.2%	0%	29%	4.13%	26%	
CS(=O)(=O)c1ccc(C2=C(c3ccccc3)C(=O)OC2)cc1 [ROFECOXIB]										Activity (Rattus norvegicus [10]): 30%; Activity (Rattus norvegicus [11]): 35%; Activity (Rattus norvegicus [12]): 32%; Activity (Rattus norvegicus [13]): 39%; Activity (Rattus norvegicus [14]): 40%; Activity (Rattus norvegicus [15]): 29%
O=C(Nc1nc(-c2ccccc2)c(C(=O)C(=O)c2sc(NC(=O)c3ccccc3)nc2-c2ccccc2)s1)c1ccccc1	12 mm	73%	38%	92%	19.3%	41%	88%	6.31%	84%	
CNc1nc(N(C)C)c(C(=O)/C(=N/OC)C(=O)OC)s1		83%	72%	90%	19.5%	66%	96%	-6.25%	95%	
C[C@@H]1C[C@H]2[C@@H]3CCC4=CC(=O)C=C[C@]4(C)[C@@]3(F)[C@@H](O)C[C@]2(C)[C@@]1(O)C(=O)CO [DEXAMETHASONE]										Activity (Rattus norvegicus [16]): 85%; Activity (Rattus norvegicus [17]): 96%; Activity (Rattus norvegicus [18]): 94%; Activity (Rattus norvegicus [19]): 92%; Activity (Rattus norvegicus [20]): 89%; Activity (Rattus norvegicus [21]): 70%
CCOC(=O)Nc1nc(C)c(/C(=N\O)c2ccc(S(C)(=O)=O)cc2)s1		69%	47%	78%	8.91%	5%	29%	-3.61%	72%	
CC(=O)Oc1ccccc1C(=O)O [ASPIRIN]	5 mm									
CS(=O)(=O)c1ccc(C(=O)c2sc(N3CCOCC3)nc2-c2ccccc2)cc1		63%	38%	44%	10.4%	27%	88%	-5.91%	42%	
